These results are taken from ChEMBL document CHEMBL1129150, “Novel antifungal 2-aryl-1-(1H-1,2,4-triazol-1-yl)butan-2-ol derivatives with high activity against Aspergillus fumigatus” (1996).

Values after ≈ are worked out from the molar mass of the structure shown. Values joined by “and” are separate entries in the source; they are usually repeats but may differ in a detail not shown here. Identical values can stand only once. A value given as a limit tells only on which side of the number the result lay.

Assay type in all cases: functional
Assay [1] relates to Aspergillus fumigatus. Kind of assay: In vitro for the antifungal activity against Aspergillus fumigatus.
Assay [2] relates to Aspergillus fumigatus. As to the kind of experiment: In vitro antifungal activity against Aspergillus fumigatus after 24 hr. incubation.
Assay [3] has as its system Mus musculus. Kind of assay: Number of mice cured after 10 days against Aspergillus fumigatus on intravenous infection to mice.
The test system of assay [4] is Mus musculus. As to the kind of experiment: Number of mice surviving due to reduction in kidney fungal burden after 10 days against Aspergillus fumigatus on intravenous infection to mice.
The subject of another assay is Pichia kudriavzevii. Kind of assay: In vitro antifungal activity against Candida krusei.
In assay [5] the test system is Candida albicans. As to the kind of experiment: In vitro antifungal activity against Candida albicans.
In another assay the test system is Nakaseomyces glabratus. As to the kind of experiment: In vitro antifungal activity against Candida glabrata.
A further assay relates to Cryptococcus neoformans. Kind of assay: In vitro antifungal activity against Cryptococcus neoformans.
Assay [6] has as its system Candida albicans. As to the kind of experiment: In vitro antifungal activity against Candida albicans after 24 hr. incubation.
The mark [7] stands for this setting: Aspergillus fumigatus, read-out: MIC.
Where [8] appears, read: Aspergillus fumigatus, 24 h, read-out: MFC.

On to `CC(c1ncnc(Cl)c1F)C(O)(Cn1cncn1)c1ccc(F)cc1F` (stereo not given), for which the MIC (as a rule, the lowest concentration that inhibits growth of the organism) in the assay on Aspergillus fumigatus [1] (setting [7]) worked out at 3.1 µg/mL (≈ 8.08 µM). In addition, the MFC (in general, the lowest tested concentration that kills the fungus rather than only halting it) in the assay with Aspergillus fumigatus [2] (setting [8]) came out at 3.1 µg/mL (≈ 8.08 µM).

Turning to `CC(c1ccncn1)C(O)(Cn1cncn1)c1ccc(F)cc1F` (stereo not given), the MIC in the assay on Aspergillus fumigatus [1] (setting [7]) was 0.39 µg/mL (≈ 1.18 µM). The compound further yielded a No. of cures in the assay with Mus musculus [3] of 0. The compound also yielded a No. of survivors in the assay with Mus musculus [4] of 3. In the assay with Aspergillus fumigatus [2] (setting [8]), the MFC came out at 0.39 µg/mL (≈ 1.18 µM).

As to `C[C@@H](c1ccncc1)[C@](O)(Cn1cncn1)c1ccc(F)cc1F`, the MIC in the assay on Aspergillus fumigatus [1] (setting [7]) amounted to 0.05 µg/mL (≈ 0.151 µM). In addition, the No. of cures with Mus musculus [3] worked out at 0. In addition, the No. of survivors in the assay with Mus musculus [4] was determined as 4. Further, the MFC in the assay with Aspergillus fumigatus [2] (setting [8]) is 0.09 µg/mL (≈ 0.272 µM).

With `CC(c1cccnc1)C(O)(Cn1cncn1)c1ccc(F)cc1F` (stereo not given), the MIC in the assay with Aspergillus fumigatus [1] (setting [7]) amounted to 0.39 µg/mL (≈ 1.18 µM).

With `OC(Cc1ccccn1)(Cn1cncn1)c1ccc(F)cc1F` (stereo not given), the MIC in the assay on Aspergillus fumigatus [1] (setting [7]) amounted to 25 µg/mL (≈ 79 µM).

On to `CC(c1ccncc1F)C(O)(Cn1cncn1)c1ccc(F)cc1F` (stereo not given), for which the MIC with Aspergillus fumigatus [1] (setting [7]) was 0.098 µg/mL (≈ 0.281 µM). In the assay with Mus musculus [3], this compound gave a No. of cures of 5. Further, in the assay with Mus musculus [4], the No. of survivors was determined as 5. Also, the MFC with Aspergillus fumigatus [2] (setting [8]) was determined as 0.19 µg/mL (≈ 0.545 µM).

On to `CC(c1ncncc1F)C(O)(Cn1cncn1)c1ccc(F)cc1F` (stereo not given), for which the MIC with Aspergillus fumigatus [1] (setting [7]) is 0.39 µg/mL (≈ 1.12 µM). Further, in the assay on Mus musculus [3], the No. of cures was 4. For the same compound, the No. of survivors in the assay on Mus musculus [4] amounted to 5. The MFC with Aspergillus fumigatus [2] (setting [8]) worked out at 0.78 µg/mL (≈ 2.23 µM).

As for `CC(c1ncncc1Cl)C(O)(Cn1cncn1)c1ccc(F)cc1F` (stereo not given), in the assay on Aspergillus fumigatus [1] (setting [7]), the MIC worked out at 0.39 µg/mL (≈ 1.07 µM). Moreover, the minimal fungicidal concentration (MFC) in the assay on Aspergillus fumigatus [2] (setting [8]) was determined as 1.56 µg/mL (≈ 4.26 µM).

Turning to `CC(n1cncn1)C(O)(Cn1cncn1)c1ccc(F)cc1F` (stereo not given), in the assay with Aspergillus fumigatus [1] (setting [7]), the MIC is 12.5 µg/mL (≈ 39 µM). In the assay with Aspergillus fumigatus [2] (setting [8]), the MFC worked out at 25 µg/mL (≈ 78.1 µM).

Turning to `OC(Cc1ccncc1)(Cn1cncn1)c1ccc(F)cc1F` (stereo not given), in the assay on Aspergillus fumigatus [1] (setting [7]), the MIC is 3.1 µg/mL (≈ 9.8 µM).

In the case of `CC(c1ncnc(Cl)c1Cl)C(O)(Cn1cncn1)c1ccc(F)cc1F` (stereo not given), the MIC in the assay on Aspergillus fumigatus [1] (setting [7]) came out at 3.1 µg/mL (≈ 7.75 µM). Also, in the assay with Aspergillus fumigatus [2] (setting [8]), the MFC worked out at 12.5 µg/mL (≈ 31.2 µM).

In the assay with Aspergillus fumigatus [1], `CC(c1ccccn1)C(O)(Cn1cncn1)c1ccc(F)cc1F` (stereo in doubt; 23a) returned an MIC of 12.5 µg/mL (≈ 37.8 µM). Besides, the MFC with Aspergillus fumigatus [2] is 100 µg/mL (≈ 303 µM).

For `CC(c1ccccn1)C(O)(Cn1cncn1)c1ccc(F)cc1F` (stereo in doubt; 23b), in the assay with Aspergillus fumigatus [1], the MIC was found to be 0.39 µg/mL (≈ 1.18 µM). The MFC against Aspergillus fumigatus [2] was found to be 1.56 µg/mL (≈ 4.72 µM).

As for `OC(Cn1cncn1)(Cn1cncn1)c1ccc(F)cc1F` [FLUCONAZOLE], the MIC with Aspergillus fumigatus [1] (setting [7]) is > 50 µg/mL; with Pichia kudriavzevii, > 25 µg/mL; against Candida albicans [5], 1 µg/mL (≈ 3.27 µM); against Nakaseomyces glabratus, 1.9 µg/mL (≈ 6.2 µM); against Cryptococcus neoformans, 9.6 µg/mL (≈ 31.3 µM). For the same compound, the MFC in the assay on Aspergillus fumigatus [2] (setting [8]) was > 50 µg/mL.

Turning to `CCC(C)n1ncn(-c2ccc(N3CCN(c4ccc(OCC5COC(Cn6cncn6)(c6ccc(Cl)cc6Cl)O5)cc4)CC3)cc2)c1=O` (stereo not given) [ITRACONAZOLE], the MIC in the assay on Aspergillus fumigatus [1] is 0.14 µg/mL and 0.39 µg/mL; against Pichia kudriavzevii, 0.05 µg/mL (≈ 0.0709 µM); against Candida albicans [5], 0.12 µg/mL (≈ 0.17 µM); with Nakaseomyces glabratus, 0.19 µg/mL (≈ 0.269 µM); against Cryptococcus neoformans, 0.39 µg/mL (≈ 0.553 µM); with Aspergillus fumigatus [2], 0.19 µg/mL (≈ 0.269 µM). This compound had a No. of cures in the assay on Mus musculus [3] of 3. For the same compound, in the assay on Mus musculus [4], the No. of survivors stood at 4.

With `C[C@@H](c1ncncc1F)[C@](O)(Cn1cncn1)c1ccc(F)cc1F` [VORICONAZOLE], the MIC with Aspergillus fumigatus [1] (setting [7]) came to 0.09 µg/mL (≈ 0.258 µM); in the assay on Pichia kudriavzevii, 0.24 µg/mL (≈ 0.687 µM); against Candida albicans [6], 0.03 µg/mL (≈ 0.0859 µM); against Nakaseomyces glabratus, 0.19 µg/mL (≈ 0.544 µM); in the assay on Cryptococcus neoformans it was 0.39 µg/mL (≈ 1.12 µM).
